Patent US6486161B1, “Use of rifamycin derivative for treating mastitis in a domestic animal” (priority 2000, dated 2002)

Legend:
[1] = tested on: Staphylococcus aureus B83-1 strain (derived from Newbould 305); assay: Therapeutic test in bovine mammary glands with experimental mastitis; type: in vivo, Holstein dairy cow
Method: As the rifamycin derivative (1), a compound A wherein R is methyl group, i. e. R≡ CH3, was examined for its therapeutic effect on bovine mastitis as follows.
The therapeutic test for infection in bovine mammary glands was carried out by inoculating […] of Staphylococcus [Staphylococcus aureus B83-1 strain (derived from Newbould 305)] into one mammary gland of a Holstein dairy cow (2-5 years old) to cause experimental mastitis.
To one mammary gland of each cow in a treated group, the compound A used in the present invention was administered (infused through the lactiferous duct) in an amount of 50 mg in 10 ml of benzyl alcohol per day successively for two days, twenty-one days after the infection. To one mammary gland of each cow in a control group, benzyl alcohol was administered in an amount of 10 ml per day in the same manner as in the treated group. The therapeutic effect of the compound A was examined by counting colony forming units (CFUs) of Staphylococcus in 1 ml of milk obtained from a cow subjected to the test. Comparing the above two groups, the therapeutic effect of the compound A on bovine mastitis was evaluated.
Staphylococcus was inoculated into forty-four mammary glands of eleven cows. Twenty-one days later, the number of mammary glands wherein Staphylococcus was separated from milk, i.e. number of mammary glands with mastitis, was counted. […]

[2] = tested on: rifampin-resistant S. aureus isolated from diseased animals; type: cell-based, Staphylococcus aureus; conditions: range over the 13 rifampin-resistant strains
Method: The antibacterial effect of the rifamycin derivative (1) against rifampin-resistant Staphylococcus aureus bacterial strains was determined. The tested bacterial strains were isolated from a variety of animal diseases as well as laboratory strains.
All bacteria were maintained on 3 mm glass beads immersed in trypticase soy broth (BBL Microbiology Systems, Cockeysville, Md.) with 10% glycerol and held at −70° C. until revived. Prior to testing, the organisms were subcultured on tryptose blood agar base (Difco, Detroit, Mich.) supplemented with 5% sheep blood for 24 hours at 35° C.
The compounds were dissolved in 95% ethanol and diluted to 10% ethanol in sterile, distilled water except for the compounds used in the in vivo testing where saline was used to dilute the original ethanol/drug suspension. Further dilutions were conducted in water or saline.
MICs were determined using the microbroth dilution method. In addition to the test organisms, the following quality control strain also was tested: Staphylococcus aureus ATCC 29213. The results are shown in Table 5, wherein R is the alkyl group R in the rifamycin derivative (1).

Compound: COC1/C=C/OC2(C)Oc3c(C)c(O)c4c(=O)c(c5oc6cc(N7CCN(C)CC7)cc(O)c6nc-5c4c3C2=O)NC(=O)/C(C)=C\C=C\C(C)C(O)C(C)C(O)C(C)C(OC(C)=O)C1C (stereo not drawn) [R = methyl]
- curing ratio ([1]; cow, 50 mg per day for two days infused through the lactiferous duct, twenty-one days after infection): 64%
- mammary glands negative (at most ten CFU per ml milk) in all the examined days ([1]; of twenty-two treated mammary glands, 50 mg in 10 ml benzyl alcohol per day for two days via lactiferous duct, 7-28 days after administration): fourteen
- MIC Range [2]: 0.06 to 4.0 µg/mL
